{"source": "patent US20100010096A1", "about": "“Methadone chiral isolate as an improved pharmaceutical” (priority 2006, published 2010)", "molecular_target": "T1, IKr channel (Homo sapiens, UniProt Q12809)", "T1 construct": "expressed in transfected cells; host or cells: Xenopus oocytes (cRNA injection)", "T1 sequence (Q12809 whole entry)": "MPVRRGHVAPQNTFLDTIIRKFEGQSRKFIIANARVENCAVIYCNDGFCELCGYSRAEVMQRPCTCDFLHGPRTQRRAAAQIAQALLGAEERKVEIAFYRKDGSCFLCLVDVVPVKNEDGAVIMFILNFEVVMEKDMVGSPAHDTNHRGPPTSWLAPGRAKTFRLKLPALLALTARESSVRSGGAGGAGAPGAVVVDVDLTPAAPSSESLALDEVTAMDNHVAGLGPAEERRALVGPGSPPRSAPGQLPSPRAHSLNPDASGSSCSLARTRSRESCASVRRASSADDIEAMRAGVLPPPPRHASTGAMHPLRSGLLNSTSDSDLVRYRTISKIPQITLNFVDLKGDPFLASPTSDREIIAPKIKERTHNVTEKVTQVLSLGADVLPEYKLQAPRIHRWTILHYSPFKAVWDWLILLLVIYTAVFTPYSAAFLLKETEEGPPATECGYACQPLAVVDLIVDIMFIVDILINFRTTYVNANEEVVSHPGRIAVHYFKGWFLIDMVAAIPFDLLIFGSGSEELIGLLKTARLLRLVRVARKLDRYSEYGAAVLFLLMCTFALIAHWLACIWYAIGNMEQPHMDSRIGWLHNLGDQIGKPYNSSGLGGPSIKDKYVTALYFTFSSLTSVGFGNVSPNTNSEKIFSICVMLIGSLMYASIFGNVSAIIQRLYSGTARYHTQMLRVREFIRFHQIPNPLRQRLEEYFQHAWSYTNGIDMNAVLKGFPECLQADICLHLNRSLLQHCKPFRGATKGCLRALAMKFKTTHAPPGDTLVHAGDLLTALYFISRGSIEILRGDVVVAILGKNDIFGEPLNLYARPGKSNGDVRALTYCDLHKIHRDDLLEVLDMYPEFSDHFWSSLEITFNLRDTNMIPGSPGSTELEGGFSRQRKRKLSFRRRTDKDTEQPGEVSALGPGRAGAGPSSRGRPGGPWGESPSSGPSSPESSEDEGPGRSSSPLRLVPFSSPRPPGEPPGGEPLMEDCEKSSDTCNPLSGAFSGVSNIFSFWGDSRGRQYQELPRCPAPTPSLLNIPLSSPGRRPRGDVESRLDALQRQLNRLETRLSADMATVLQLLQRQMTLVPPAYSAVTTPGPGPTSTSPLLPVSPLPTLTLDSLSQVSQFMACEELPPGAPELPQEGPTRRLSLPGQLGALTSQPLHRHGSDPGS", "assay": "IKr inhibition in xenopus oocytes overexpressing the IKr channel, two electrode voltage clamp", "type": "cell-based", "conditions": "methadone racemate 0.01 to 3 mM, FIG. 3", "data": [{"smiles": "CCC(=O)C(CC(C)N(C)C)(c1ccccc1)c1ccccc1", "note": "(racemic) [methadone]", "values": [{"measurement": "inhibition of the IKr current", "result": "dose related inhibition of the IKr current"}]}]}
